Consider 1 compound from PMC9177597, “Structural basis of substrate recognition and translocation by human very long-chain fatty acid transporter ABCD1” (Nature Communications, 2022).

SMILES strings stand for the structures. Where a chain is given by its changes, count along the chain named.

Holding throughout (assay): substrate-stimulated ATPase assay (colorimetric Pi release)
Common to all, as to format: biochemical

Test [1] addresses T1, chABCD1 (chimeric ABCD1) (Homo sapiens, UniProt P33897, K217A).
T1 construct: single polypeptide: N-terminal FLAG tag, PMP-4 residues 1-65 replacing human ABCD1 residues 1-63, then human ABCD1 64-745; HEK293F; homodimer; LMNG/CHS for assays, digitonin for cryo-EM; with PMP-4 (peroxisomal membrane protein related, ABCD1 homolog, Caenorhabditis elegans; N-terminal segment fused to the target chain)
T1 sequence (P33897 64-745 K217A): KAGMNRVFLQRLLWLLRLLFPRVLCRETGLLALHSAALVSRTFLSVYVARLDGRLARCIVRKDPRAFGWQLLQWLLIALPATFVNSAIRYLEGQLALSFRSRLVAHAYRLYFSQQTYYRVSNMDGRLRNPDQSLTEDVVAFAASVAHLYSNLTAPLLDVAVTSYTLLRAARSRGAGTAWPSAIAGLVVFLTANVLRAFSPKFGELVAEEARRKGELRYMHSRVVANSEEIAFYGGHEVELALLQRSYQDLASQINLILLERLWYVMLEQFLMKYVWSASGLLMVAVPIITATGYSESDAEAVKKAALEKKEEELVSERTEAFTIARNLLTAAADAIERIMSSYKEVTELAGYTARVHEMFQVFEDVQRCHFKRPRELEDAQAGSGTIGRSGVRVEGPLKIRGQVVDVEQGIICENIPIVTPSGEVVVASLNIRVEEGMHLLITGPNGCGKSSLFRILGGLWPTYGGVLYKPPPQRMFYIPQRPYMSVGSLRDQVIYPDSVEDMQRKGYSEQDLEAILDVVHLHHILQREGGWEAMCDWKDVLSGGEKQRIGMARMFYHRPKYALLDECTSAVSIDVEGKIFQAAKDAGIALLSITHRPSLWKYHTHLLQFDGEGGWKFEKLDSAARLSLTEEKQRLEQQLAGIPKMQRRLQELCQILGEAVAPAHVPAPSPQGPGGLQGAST
As to conditions: 5 μM C22:0-CoA, 2 mM ATP, 2 mM MgCl2, LMNG + CHS, pH 7.5, 37 °C.

Test [2] addresses T2, chABCD1 (chimeric ABCD1) (Homo sapiens, UniProt P33897, R152A).
T2 construct: single polypeptide: N-terminal FLAG tag, PMP-4 residues 1-65 replacing human ABCD1 residues 1-63, then human ABCD1 64-745; HEK293F; homodimer; LMNG/CHS for assays, digitonin for cryo-EM; with PMP-4 (peroxisomal membrane protein related, ABCD1 homolog, Caenorhabditis elegans; N-terminal segment fused to the target chain)
T2 sequence (P33897 64-745 R152A): T1 sequence (P33897 64-745 K217A) with R89A, A154K
As to conditions: 5 μM C22:0-CoA, 2 mM ATP, 2 mM MgCl2, LMNG + CHS, pH 7.5, 37 °C.

Test [3] addresses T3, chABCD1 (chimeric ABCD1) (Homo sapiens, UniProt P33897, DEL694-745).
T3 construct: single polypeptide: N-terminal FLAG tag, PMP-4 residues 1-65 replacing human ABCD1 residues 1-63, then human ABCD1 64-745; HEK293F; homodimer; LMNG/CHS for assays, digitonin for cryo-EM; with PMP-4 (peroxisomal membrane protein related, ABCD1 homolog, Caenorhabditis elegans; N-terminal segment fused to the target chain)
T3 sequence (P33897 64-693): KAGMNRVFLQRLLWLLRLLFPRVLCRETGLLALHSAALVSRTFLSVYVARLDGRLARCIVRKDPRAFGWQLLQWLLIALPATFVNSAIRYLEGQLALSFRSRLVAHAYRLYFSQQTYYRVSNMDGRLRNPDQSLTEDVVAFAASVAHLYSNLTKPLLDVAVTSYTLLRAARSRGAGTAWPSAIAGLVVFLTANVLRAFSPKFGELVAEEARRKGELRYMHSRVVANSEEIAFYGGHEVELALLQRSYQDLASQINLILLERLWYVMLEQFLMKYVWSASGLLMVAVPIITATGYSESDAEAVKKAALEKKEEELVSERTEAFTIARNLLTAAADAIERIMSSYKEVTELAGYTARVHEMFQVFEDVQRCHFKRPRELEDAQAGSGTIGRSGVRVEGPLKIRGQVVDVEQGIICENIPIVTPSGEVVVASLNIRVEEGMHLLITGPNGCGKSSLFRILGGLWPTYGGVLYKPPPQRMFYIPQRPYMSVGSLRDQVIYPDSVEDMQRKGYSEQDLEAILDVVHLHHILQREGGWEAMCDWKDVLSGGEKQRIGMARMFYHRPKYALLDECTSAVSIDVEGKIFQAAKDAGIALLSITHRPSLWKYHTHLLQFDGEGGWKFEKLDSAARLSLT

In test [4] the target is T4, chABCD1 (chimeric ABCD1) (Homo sapiens, UniProt P33897, T693M).
T4 construct: single polypeptide: N-terminal FLAG tag, PMP-4 residues 1-65 replacing human ABCD1 residues 1-63, then human ABCD1 64-745; HEK293F; homodimer; LMNG/CHS for assays, digitonin for cryo-EM; with PMP-4 (peroxisomal membrane protein related, ABCD1 homolog, Caenorhabditis elegans; N-terminal segment fused to the target chain)
T4 sequence (P33897 64-745 T693M): T1 sequence (P33897 64-745 K217A) with A154K, T630M
As to conditions: 2 mM ATP, 2 mM MgCl2, LMNG + CHS, pH 7.5, 37 °C, varying C22:0-CoA.

As to `CCCCCCCCCCCCCCCCCCCCCC(=O)SCCNC(=O)CCNC(=O)[C@H](O)C(C)(C)COP(=O)(O)OP(=O)(O)OC[C@H]1O[C@@H](n2cnc3c(N)ncnc32)[C@H](O)[C@@H]1OP(=O)(O)O` [C22:0-CoA], the “relative ATPase activity” value is listed as “displayed significantly decreased substrate-simulated ATPase activity, compared to the wild-type” at chABCD1 (chimeric ABCD1) [1] and “displayed significantly decreased substrate-simulated ATPase activity, compared to the wild-type” on chABCD1 (chimeric ABCD1) [2]. In addition, the EC50 at chABCD1 (chimeric ABCD1) [3] is around 4 µM. For the same compound, at chABCD1 (chimeric ABCD1) [4], the ATPase activity result is given as “ATPase activity assays of T693M mutant, which showed an almost non-detectable activity”.
